Where two headings read alike, the source gives them in different places.
Columns and labels:
[1] = test system: HIV-1 ANCH3 (HIV-1ΔEnvINHAΔNef ANCH3/VSV-G); format: cell-based
[2] = test system: HIV-1 CA and IN association; format: cell-based; conditions: 24 h
HIV-1 viral RNA = format: cell-based; conditions: 24 h
viral CA = viral CA (Human immunodeficiency virus type 1 group M subtype B, UniProt P04591); conditions: cited from earlier work
[3] = test system: lentiviral particles pseudotyped with Spike from SARS-CoV2 (S-LV-ANCH3); format: cell-based

SMILES: Cc1[nH]c2ccccc2c1CC(=O)N[C@@H](Cc1ccccc1)C(=O)N(C)c1ccccc1 [PF74]
- Detection of viral DNA inside the nucleus [1]: detect the viral DNA inside the nucleus only in the absence of PF74
- Viral nuclear entry [1]: blocked viral nuclear entry
- Association between CA and IN ([2]; high dose of PF74 (10 μM)): lost
- Association between CA and IN ([2]; low dose of PF74 (1.25 μM)): preserved to levels comparable to samples without drug at 6 h post infection
- Viral RNA of the incoming cores (HIV-1 viral RNA; high dose of PF74 (10 μM)): completely degraded
- Viral RNA of the incoming cores (HIV-1 viral RNA; low dose of PF74 (1.25 μM)): not completely degraded
- Mechanism at high concentration (viral CA): accelerates uncoating and blocks reverse transcription
- Mechanism at low concentration (viral CA): directly competes with the binding of host viral partners

SMILES: CCN(CCO)CCCC(C)Nc1ccnc2cc(Cl)ccc12 (stereo not shown) [hydroxychloroquine]
- Viral entry of S-LV-ANCH3 [3]: inhibit viral entry

SMILES: Cc1ccnc2c1NC(=O)c1cccnc1N2C1CC1 [NEV, nevirapine]
- Intranuclear spots counted in 20 cells [1]: 0 detections

From US12613239B2, “Live imaging system to visualize the retro-transcribed viral DNA genome” (priority 2019, dated 2026)
